Measured values reported in patent publication US8293771B2, “p38 MAP kinase inhibitors” (Respivert Ltd., priority 2008, dated 2012).

Experiments:
[1] = test system: Differentiated U937 cells; assay: LPS-induced TNFα release in differentiated U937 cells; format: cell-based; conditions: Homo sapiens, U-937; 0.1 ug/ml LPS, 4 hrs; compound pre-incubated 2 hrs
Method: U937 cells, human monocytic cell line, were differentiated to macrophage-type cells by incubation with phorbol myristate acetate (PMA; 100 ng/ml) for 48 to 72 hours. Where appropriate, cells were pre-incubated with final concentrations of compound for 2 hrs. Cells were then stimulated with 0.1 ug/ml of LPS (from E. Coli: O111:B4, Sigma) for 4 hrs, and the supernatant collected for determination of TNFα concentration by sandwich ELISA (Duo-set, R&D systems). THP-1, human monocytic cell line, was also used for this assay. THP-1 cells were stimulated with 1 ug/ml of LPS (from E. Coli: O111:B4, Sigma) for 4 hrs, and the supernatant collected for determination of TNFα concentration.

[2] = test system: Differentiated U937 cells; assay: MTT assay in differentiated U937 cells; format: cell-based, human; conditions: 4, 24 h (10 ug/ml)
Method: Differentiated U937 cells were pre-incubated with compound for 4 hrs in 5% FCS or 10% FCS for 24 hrs and 72 hrs. The supernatant was replaced with 200 ul of new media and 10 ul of MTT stock solution (5 mg/ml) added to each well. After 1 hr incubation, the media were removed, 200 ul of DMSO added to each well and the plates were shaken lightly for 1 hour prior to reading the absorbance at 550 nm.
The percentage loss of cell viability was calculated for each well relative to vehicle (0.5% DMSO)-treatment. Consequently an apparent increase in cell viability for drug treatment relative to vehicle is tabulated as a negative percentage.

[3] = test system: LPS-induced neutrophil accumulation; assay: LPS-induced neutrophilia in the mouse; format: in vivo
[4] = test system: neutrophil and macrophage accumulation into airways of mice exposed to cigarette smoke; assay: Cigarette smoke model; format: in vivo, A/J mice; conditions: intra-nasal, twice daily for 3 days
Method: A/J mice (males, 5 weeks old) were exposed to cigarette smoke (4% cigarette smoke, diluted with compressed air) for 30 min/day for 11 days using a Tobacco Smoke Inhalation Experiment System for small animals (Model SIS-CS; Sibata Scientific Technology, Tokyo, Japan). Test substances were given intra-nasally (35 μl of solution in 50% DMSO/PBS) and therapeutically twice daily for 3 days after the final cigarette smoke exposure. Twelve hours after the last dosing, animals were anesthetized, the trachea cannulated and bronchoalveolar lavage fluid (BALF) was collected. The numbers of alveolar macrophages and neutrophils were determined by FACS analysis (EPICS® ALTRA II, Beckman Coulter, Inc., Fullerton, Calif., USA) using anti-mouse MOMA2 antibody (macrophage) or anti-mouse 7/4 antibody (neutrophil).
The results are shown in FIG. 3 for activated alveolar macrophages and in FIG. 4 for neutrophils. Data for cell numbers are shown as the mean±SEM.

[5] = test system: ovalbumin-mediated lung function changes (sGaw); assay: Ovalbumin challenge/parainfluenza infection model (in vivo model for steroid resistance); parameters: species or system Dunkin-Hartley guinea-pigs
Method: Male Dunkin-Hartley guinea-pigs (300-350 g, n=6/group) were sensitised with 100 μg ovalubumin (OVA)+100 mg Al2(OH)3 in 1 ml normal saline (i.p.) on days 2 and 6. Parainfluenza virus (PIV-3; 10^6 infectious units) or media without virus was nasally instilled on days 11 and 12. Animals were treated with nebulised fluticasone propionate at a dose of 1.5 mg per day. […] All animals were challenged for 1 h with nebulised OVA (10 μg/ml) on day 15 and repeated measurements of specific airways conductance (sGaw) were made over a 24 h period using whole body plethysmography. Measurements of sGaw after OVA challenge are plotted as % change from baseline.

| Structure (SMILES) | IC50 [1] [nM] | Differentiated U937 cells MTT assay [2] | Inhibition of LPS-induced neutrophil accumulation ([3]; mouse, intra tracheal pre-dosing, BALF 8 hours after LPS) | Duration of effect on LPS-induced neutrophil accumulation ([3]; mouse, pre-dose time before LPS) | Efficacy in cigarette smoke model of steroid-resistant inflammation [4] | Efficacy in ovalbumin challenge/parainfluenza model of steroid-resistant inflammation ([5]; guinea pigs, PIV3 inoculated, 4.5 mg per day nebulised) | inhibition at 50 µg/mL ([3]; Mus musculus, Neutrophil, 50 μg/ml (35 μl, bid)) [%] | Ovalbumin-mediated lung function changes ([5]; sensitized animals treated with PIV3 medium (no virus), nebulised 1.5 mg per day) |
| --- | --- | --- | --- | --- | --- | --- | --- | --- |
| COCC(=O)Nc1cc(COc2ccc(NC(=O)Nc3cc(C(C)(C)C)nn3-c3ccc(C)cc3)c3ccccc23)ccn1 [Example 1, N-[4-({4-[3-(3-tert-Butyl-1-p-tolyl-1H-pyrazol-5-yl)ureido]naphthalen-1-yloxy}methyl)pyridin-2-yl]-2-methoxyacetamide] | 0.88 | Negative^2 | effective in inhibiting LPS-induced neutrophil accumulation | significant inhibition even at 12 or more hours of pre-dosing | effective | effective |  |  |
| CCC(=O)O[C@]1(C(=O)SCF)[C@H](C)C[C@H]2[C@@H]3C[C@H](F)C4=CC(=O)C=C[C@]4(C)[C@@]3(F)[C@@H](O)C[C@@]21C [fluticasone propionate, reference compound] |  |  |  |  |  |  | > 80 | inhibited ovalbumin-mediated lung function changes |
